Where two headings read alike, the source gives them in different places.
Legend:
HIV-1 CBL-4 = assay: decrease in infectivity titre in C8166 cells, HIV-1 CBL-4; type: cell-based; conditions: for decrease in infectivity titre: CBL-4, C8166 cells
HIV-1 (RF) [1] = assay: microbe, parasite or virus in culture; type: cell-based; conditions: for decrease in infectivity titre: RF
Protocol: The human T-leukamic cell line C8166 was grown in RPMI 1640 with 10% FCS.
Various strains of HIV-1 (RF. IIIB, CBL-4, Z84 and Z129) were produced in chronically infected H9 cells. A five-fold excess of uninfected H9 cells was added to the culture five days prior to harvesting the supernatant which is clarified by centrifugation and stored in liquid nitrogen.
Induction of cytopathic effects on CD4^+ C8166 by HIV was assayed by multi-nucleated giant cell formation (syncytia).
(§1) HIV-1 (RF) was titrated in 10-fold dilutions onto C8166 cells in the presence of varying concentrations of drug. […] The figures in the table represent the logarithm to the base 10 of the figure actually determined. For instance, a figure of -6 in the table represents a determined result of 10^-6.

HIV-1 IIIB = assay: decrease in infectivity titre in C8166 cells, HIV-1 IIIB; type: cell-based; conditions: for decrease in infectivity titre: IIIB, C8166 cells
Human PBL = assay: toxicity: cell viability by [3H]-thymidine uptake in PHA-stimulated human PBL; type: cell-based; conditions: around 200 ug/ml
Protocol: (§2) Normal human peripheral blood lymphocytes (PBL) were fractionated on Ficoll-Hypaque (Pharmacia Chemicals, Uppsala, Sweden) from venous blood collected in preservative-free heparin. They were mitogenetically stimulated with phytohaemaglutinin (PHA) (1 ug/ml) for 3 days and maintained in the medium RPMI 1640 supplemented by 20% foetal calf serum (FCS)+interleukin-2 (IL2) ([…]).
(§3) The relative toxicities of the materials tested in example 4 were evaluated by reference to cell viability in the presence of the drugs as measured by the relative uptake of [^3 H]- thymidine. Human PBL (10^6 cells/well) in 96 microtitre plates was stimulated with PHA in the presence of increasing concentration of drug for 3 days. Following a 5 hour probe with [^3 H]- thymidine (0.5 uCi/well), the cells were harvested and counted. The results shown represent the mean of quadruplicate experiments and are presented as the percentage incorporation of [^3 H]-thymidine in the presence of drug, compared to control experiments without drug.

[2] = as above; type: cell-based; conditions: human, pha-stimulated pbl, 3 days, mean of quadruplicate, read-out: Thymidine uptake (% of control with no drug)
Protocol: as §2, §3

HIV-1 (RF) [3] = type: cell-based
Excerpt: as §1

Bovine Thrombin = assay: anti-coagulant activity: clot formation time of pooled normal plasma after bovine thrombin; type: biochemical; conditions: comparison among dextrin sulphates
Protocol: The materials to be tested were each dissolved in veronal buffer to a concentration of 1 mg/ml=1000 ug/ml and a further dilution of 100 ug/ml was made by a 1:10 dilution in veronal buffer. Pooled normal plasma (1 ml) was then placed into each of nine plastic tubes. The solutions containing the materials to be tested were then added to the plasma to achieve a range of final concentrations from 1-300 ug/ml, in each case the volume being made up to 1.5 ml with veronal buffer. The resultant mixtures were incubated at 37° C. for 30 minutes, following which two 0.2 ml aliquots were extracted from each sample into glass tubes (Samples A and B), and 0.1 ml 7 U Bovine Thrombin was added and clot formation timed.

HIV-1 [4] = assay: activity against HIV-1 virus (general statement); conditions: comparison among dextrin sulphates
RF = assay: minimum concentration inhibiting syncytia formation in M8166 JH11 cells, RF; type: cell-based, HIV-1; conditions: for inhibitory concentration (minimum concentration at which syncytia formation was <10% that of controls): RF, 10^3 TCID, M8166 JH11 cells
Protocol: (§4) 50 ul samples of dextran sulphate and of the 2-, 3- and 6-sulphate derivatives of dextrin of Examples 3, 1 and 2 respectively were pre-incubated at 37° C. onto duplicate cultures of 4×10^5M8166 JH11 cells per ml (50 ul) at final concentrations of […] for one hour.

CBL20 = assay: minimum concentration inhibiting syncytia formation in M8166 JH11 cells, CBL20; type: cell-based, HIV-1; conditions: 10^3 TCID
Protocol: as §4

HIV-1 [5] = assay: inhibition of syncytia formation, overall over IIIb, RF, RUT, CBL20; type: cell-based; conditions: compared with dextran sulphate (MW 8,000) and dextrin 3-sulphate
Protocol: as §4

IIIb = assay: minimum concentration inhibiting syncytia formation in M8166 JH11 cells, IIIb; type: cell-based, HIV-1; conditions: 10^3 TCID
Protocol: as §4

RUT = assay: minimum concentration inhibiting syncytia formation in M8166 JH11 cells, RUT; type: cell-based, HIV-1; conditions: 10^2 TCID
Protocol: as §4

[6] = Human immunodeficiency virus 1, C8166, read-out: decrease in infectivity titre
[7] = 0.1 ug/ml, HIV-1 (RF), C8166 cells
[8] = 1.0 ug/ml, HIV-1 (RF), C8166 cells
[9] = 10 ug/ml, HIV-1 (RF), C8166 cells
[10] = 100 ug/ml, HIV-1 (RF), C8166 cells
[11] = Human immunodeficiency virus 1, IIIB, C8166, read-out: decrease in infectivity titre

Row | Compound | Final dilution of the virus at which syncytia are produced (logarithm to the base 10) (HIV-1 (RF) [1]; [7]) | Final dilution of the virus at which syncytia are produced (logarithm to the base 10) (HIV-1 (RF) [1]; [8]) | Final dilution of the virus at which syncytia are produced (logarithm to the base 10) (HIV-1 (RF) [1]; [9]) | Final dilution of the virus at which syncytia are produced (logarithm to the base 10) (HIV-1 (RF) [1]; [10]) | Inhibition of HIV-1 (RF), live cell (C8166) reduction of MTT, estimated visually (HIV-1 (RF) [3]; 1.0 ug/ml) | Inhibition of HIV-1 (RF), live cell (C8166) reduction of MTT, estimated visually (HIV-1 (RF) [3]; 10 ug/ml) | anti-coagulant activity in words (Bovine Thrombin) | anti-HIV activity in words (HIV-1 [4]) | inhibitory concentration (minimum concentration at which syncytia formation was <10% that of controls) (RF) | inhibitory concentration (minimum concentration at which syncytia formation was <10% that of controls) (CBL20) | overall effectiveness (HIV-1 [5]) | inhibitory concentration (minimum concentration at which syncytia formation was <10% that of controls) (IIIb) | inhibitory concentration (minimum concentration at which syncytia formation was <10% that of controls) (RUT) | further results
1 | Cc1cn([C@H]2C[C@H](N=[N+]=[N-])[C@@H](CO)O2)c(=O)[nH]c1=O [AZT, zidovidine] | -4 | -3.5 | -3 | -3 | - | - |  |  |  |  |  |  |  | log reduction at 10 µg/mL (HIV-1 CBL-4; [6]): 4; log reduction at 50 µg/mL (HIV-1 CBL-4; [6]): 4; log reduction at 10 µg/mL (HIV-1 (RF) [1]; [6]): 3; log reduction at 50 µg/mL (HIV-1 (RF) [1]; [6]): 3; log reduction at 1 µg/mL (HIV-1 (RF) [1]; Human immunodeficiency virus 1, C8166, read-out: inhibition (reduction of the infectious titre)): 2.5; log reduction at 10 µg/mL (HIV-1 (RF) [1]; Human immunodeficiency virus 1, C8166, read-out: reduction of the infectious titre): 3; log reduction at 10 µg/mL (HIV-1 IIIB; [11]): 4; log reduction at 50 µg/mL (HIV-1 IIIB; [11]): 4; toxicity in words (Human PBL): very highly toxic; viability at 72 h ([2]; 5 ug/ml): 20%; viability at 72 h ([2]; 10 ug/ml): 15%; viability at 72 h ([2]; 25 ug/ml): 5%; viability at 72 h ([2]; 50 ug/ml): 2%; viability at 72 h ([2]; 71 ug/ml): 1%; viability at 72 h ([2]; 100 ug/ml): 1%; viability at 72 h ([2]; 200 ug/ml): 0%; Inhibition of HIV-1 (RF), live cell (C8166) reduction of MTT, estimated visually (HIV-1 (RF) [3]; 0.1 ug/ml): -
2 | Dextran | -6 | -6 | -6 |  |  | - |  |  |  |  |  |  |  | effect against HIV replication (HIV-1 (RF) [1]; HIV-1 (RF), C8166 cells): ineffective against HIV replication
3 | dextrin 2-sulphate |  | -4 | -2 | -2 | - | - | least anti-coagulant | about the same activity against the HIV-1 virus as the dextrin 6sulphate | 5 µg/µL | 50 µg/µL | overall greater effectiveness | 5 µg/µL | 5 µg/µL | decrease in infectivity titre (HIV-1 CBL-4; 10 ug/ml): 0 log units; decrease in infectivity titre (HIV-1 CBL-4; 50 ug/ml): 4 log units; inhibition (reduction of the infectious titre) (HIV-1 (RF) [1]; 1 ug/ml, HIV-1 (RF), C8166 cells): 2 logs; reduction of the infectious titre (HIV-1 (RF) [1]; [9]): 3 logs; decrease in infectivity titre (HIV-1 (RF) [1]; 10 ug/ml, C8166 cells): 5 log units; decrease in infectivity titre (HIV-1 (RF) [1]; 50 ug/ml, C8166 cells): 6 log units; inhibition of syncytial induction on C8166 cells (HIV-1 (RF) [1]; compared with AZT and dextran sulphate): inhibits syncytial induction on C8166 cells with greater effect than either AZT or dextran sulphate; decrease in infectivity titre (HIV-1 IIIB; 10 ug/ml): 3 log units; decrease in infectivity titre (HIV-1 IIIB; 50 ug/ml): 5 log units
4 | dextrin 3-sulphate |  |  |  |  |  |  | least anti-coagulant | relatively poor anti-HIV activity, by comparison with dextrin 2- and 6-sulphates | 5 µg/µL | > 50 µg/µL |  | 50 µg/µL | 50 µg/µL | effectiveness against RF (RF; compared with dextran sulphate (MW 8,000)): more effective than dextran sulphate against RF
5 | dextrin 6-sulphate |  |  |  |  |  |  | greater anti-coagulant activity |  | 5 µg/µL | > 50 µg/µL | overall greater effectiveness | 5 µg/µL | 50 µg/µL | 

Source: patent US5439892A, “Dextrin sulfates as anti HIV-1 agents and composition thereof” (ML Laboratories, priority 1990, dated 1995)
